Literature values, collected in PubChem BioAssay AID1259409 (Chemical Carcinogenesis Research Information System (CCRIS), 2018).

System: rodent chemically induced tumor inhibition, incidence and multiplicity
Test: CCRIS tumor inhibitor studies

Structure (SMILES) | tumour outcome (control, treated, inhibition, significance) (Carcinogen: 4-(METHYLNITROSAMINO)-1-(3-PYRIDYL)-1-BUTANONE, 64091-91-4, Dose [Inhibitor]: 0, 0.2 UMOL 1/D FOR 4 D ADMINISTERED PRIOR TO CARCINOGEN TREATMENT (STUDY DURATION: 116 D), Route [Inhibitor]: GAVAGE, Species: MOUSE, Strain/Sex: STRAIN A, Target Tissue: Type of Lesion: LUNG: ADENOMA, Dose [Carcinogen]: 10 UMOL ONCE 2 HR AFTER FINAL DOSE OF INHIBITOR, Promoter: NONE USED) | tumour outcome (control, treated, inhibition, significance) (Carcinogen: 4-(METHYLNITROSAMINO)-1-(3-PYRIDYL)-1-BUTANONE, 64091-91-4, Dose [Inhibitor]: 0, 1 UMOL 1/D FOR 4 D ADMINISTERED PRIOR TO CARCINOGEN TREATMENT (STUDY DURATION: 116 D), Route [Inhibitor]: GAVAGE, Species: MOUSE, Strain/Sex: STRAIN A, Target Tissue: Type of Lesion: LUNG: ADENOMA, Dose [Carcinogen]: 10 UMOL ONCE 2 HR AFTER FINAL DOSE OF INHIBITOR, Promoter: NONE USED) | tumour outcome (control, treated, inhibition, significance) (Carcinogen: 4-(METHYLNITROSAMINO)-1-(3-PYRIDYL)-1-BUTANONE, 64091-91-4, Dose [Inhibitor]: 0, 5 UMOL 1/D FOR 4 D ADMINISTERED PRIOR TO CARCINOGEN DOSE (STUDY DURATION: 116 D), Route [Inhibitor]: GAVAGE, Species: MOUSE, Strain/Sex: STRAIN-A, Target Tissue: Type of Lesion: LUNG: ADENOMA, Dose [Carcinogen]: 10 UMOL IN SALINE ADMINISTERED 2 HR POST LAST AGENT DOSE, Promoter: NONE USED) | tumour outcome (control, treated, inhibition, significance) (Carcinogen: 4-(N-NITROSOMETHYLAMINO)-1-(3-PYRIDYL)-1-BUTANONE, 64091-91-4, Dose [Inhibitor]: 0, 5 UMOL/D FOR 4 CONSECUTIVE DAYS (STUDY DURATION: 16.5 WK), Route [Inhibitor]: GAVAGE, Species: MOUSE, Strain/Sex: STRAIN-A/FEMALE, Target Tissue: Type of Lesion: LUNG: ADENOMA, Dose [Carcinogen]: 10 UMOL ONCE 2 HR POST LAST AGENT DOSE, Promoter: NONE USED) | tumour outcome (control, treated, inhibition, significance) (Carcinogen: 4-METHYLNITROSAMINO-1-(3-PYRIDYL)-1-BUTANONE,64091-91-4, Dose [Inhibitor]: 0, 5 UMOL 1/D FOR 4 D ADMINISTERED PRIOR TO CARCINOGEN TREATMENT (STUDY DURATION 116 D), Route [Inhibitor]: GAVAGE, Species: MOUSE, Strain/Sex: STRAIN A, Target Tissue: Type of Lesion: LUNG: ADENOMA, Dose [Carcinogen]: 10 UMOL ONCE 2 HR AFTER FINAL DOSE OF INHIBITOR, Promoter: NONE USED) | tumour outcome (control, treated, inhibition, significance) (Carcinogen: N-NITROSOMETHYLBENZYLAMINE, 937-40-6, Dose [Inhibitor]: 0, 0.4 UMOL/G IN DIET FOR 25 WK BEGINNING 2 WK PRIOR TO CARCINOGEN TREATMENT (STUDY DURATION: 25 WK), Route [Inhibitor]: ORAL, Species: RAT, Strain/Sex: F344/MALE, Target Tissue: Type of Lesion: ESOPHAGUS: TUMOR, Dose [Carcinogen]: 0.5 MG/KG BW IN 20% DMSO 1/WK FOR 15 WK, Promoter: NONE USED) | tumour outcome (control, treated, inhibition, significance) (Carcinogen: N-NITROSOMETHYLBENZYLAMINE, 937-40-6, Dose [Inhibitor]: 0, 1 UMOL/G IN DIET FOR 25 WK BEGINNING 2 WK PRIOR TO CARCINOGEN TREATMENT (STUDY DURATION: 25 WK), Route [Inhibitor]: ORAL, Species: RAT, Strain/Sex: F344/MALE, Target Tissue: Type of Lesion: ESOPHAGUS: TUMOR, Dose [Carcinogen]: 0.5 MG/KG BW IN 20% DMSO 1/WK FOR 15 WK, Promoter: NONE USED) | tumour outcome (control, treated, inhibition, significance) (Carcinogen: N-NITROSOMETHYLBENZYLAMINE, 937-40-6, Dose [Inhibitor]: 0, 2.5 UMOL/G IN DIET FOR 25 WK BEGINNING 2 WK PRIOR TO CARCINOGEN TREATMENT (STUDY DURATION: 25 WK), Route [Inhibitor]: ORAL, Species: RAT, Strain/Sex: F344/MALE, Target Tissue: Type of Lesion: ESOPHAGUS: TUMOR, Dose [Carcinogen]: 0.5 MG/KG BW IN 20% DMSO 1/WK FOR 15 WK, Promoter: NONE USED) | tumour outcome (control, treated, inhibition, significance) (Carcinogen: 2-AMINO-3-METHYLIMIDAZO[4,5-B]PYRIDINE (PHIP) [105650-23-5), Dose [Inhibitor]: DIET, Route [Inhibitor]: 400 PPM ADMINISTERED FROM 42 TO 66 D OF AGE, Species: RAT, Strain/Sex: SPRAGUE-DAWLEY/FEMALE, Target Tissue: Type of Lesion: MAMMARY, CARCINOMA, Dose [Carcinogen]: 85 MG/KG BW 8 TIMES OVER 11 D, STARTING 1 WK AFTER ANIT FEEDING (STUDY DURATION: 24 WKS))
S=C=NCCCc1ccccc1 | 100%, 90%, 10%, not significant | 100%, 75%, 25%, not significant | 100%, 37%, 63%, p<0.001 | 100%, 37%, 63%, not calculated | 100%, 11%, 89%, p<0.05 | 100%, 7%, 93%, p<0.05 | 100%, 7%, 93%, p<0.05 | 100%, 0%, 100%, p<0.05 | 
S=C=Nc1cccc2ccccc12 |  |  |  |  |  |  |  |  | 56.3%, 6.7%, 88.1%, p<0.001
